Consider one molecule from US12428377B2, “Sodium-hydrogen exchanger 3 inhibitor compounds” (Eli Lilly and Company, priority 2019, dated 2025).

Values joined by “and” are separate entries in the source; they are usually repeats but may differ in a detail not shown here. Equal entries are not always repeated.

This experiment relates to male Sprague Dawley rats. In words: Intestinal phosphate retention: percent radiolabeled dose recovered in gastrointestinal tract. The class given is in vivo, rat. Conditions: Example 2 0.4 mg/kg, 4 h after radiolabeled phosphate. As for the experimental part: The purpose of this study is to investigate in rats the effect of Example 2, Compound A, and an Example 2/Compound A combination on phosphate absorption 15 min after dosing the compounds and the phosphate retained in the intestine 4.25 h after dosing the compounds. The latter is a measure of the oral phosphate load which is absorbed over an extended period.
Two vehicles are used in this study: 1) 1% HEC and 2) 0.46% poly-1-vinylpyrrolidone-co-vinyl acetate in water (PVP-VA vehicle). The vehicle control group in this study receives a 1:1 combination of the two vehicles.
The Example 2, Compound A and phosphate dosing solutions are prepared similarly as described above, except the doses are 0.4 mg/kg for Example 2 and 10 mg/kg for Compound A and they are prepared at a concentration where they would be dosed in a 5 mL/kg volume. The Example 2 and Compound A alone groups are mixed 1:1 with the vehicle of the other compound, while the Compound A and Example 2 are mixed 1:1 prior to dosing. The final dosing volume is 10 mL/kg in all cases.
4 h after the radiolabeled phosphate solution is dosed, stomach, small intestine, large intestine, and feces are collected, weighed and digested with 1N NaOH overnight at 37° C. Radioactivity in each fraction is measured by scintillation counting.
The percent dose recovered in gastrointestinal tract is defined as radioactivity recovered in stomach, small intestine, large intestine and feces compared to the amount dosed. Data is presented as mean±SEM with animal numbers equal to 8 for the groups. Statistical significance is determined by ANOVA with a Dunnett's comparison to the Example 2/Compound A combination using JMP 12.1.
The percent dose recovered in gastrointestinal tract data is further analyzed by a two-way ANOVA in JMP 12.1 to test for additivity of the effects of Example 2 and Compound A on inhibiting phosphate absorption. […] That is, the inhibitory effect of the combination is greater than the sum of the individual compound effects.

For `CN1Cc2c(Cl)cc(Cl)cc2[C@H](c2cccc(S(=O)(=O)NCCOCCOCCN/C(=N\C(N)=O)NCCCCN/C(=N/C(N)=O)NCCOCCOCCNS(=O)(=O)c3cccc([C@@H]4CN(C)Cc5c(Cl)cc(Cl)cc54)c3)c2)C1.Cl.Cl` [Example 2, [[4-[[N′-Carbamoyl-N-[2-[2-[2-[[3-[(4S)-6,8-dichloro-2-methyl-3,4-dihydro-1H-isoquinolin-4-yl]phenyl]sulfonylamino]ethoxy]ethoxy]ethyl]carbamimidoyl]amino]butylamino]-[2-[2-[2-[[3-[(4S)-6,8-dichloro-2-methyl-3,4-dihydro-1H-isoquinolin-4-yl]phenyl]sulfonylamino]ethoxy]ethoxy]ethylamino]methylene]urea dihydrochloride], the “Percent Dose Recovered, Feces” value was <0.1%. For the same molecule, for the setting “mean ± SEM”, the “Percent Dose Recovered, Large Intestine” value turned out to be 18.16 ± 2.58%; the “Percent Dose Recovered, Small Intestine” value is 8.64 ± 0.32%; the “Percent Dose Recovered, Stomach” value is 3.9 ± 0.49%. Also, where the note is “mean ± SEM, dihydrochloride, 0.4 mg/kg”, the “Percent Dose Recovered, Total” value was 31% and 30.7 ± 2.43%.
